{"source": "patent US6875760B2", "about": "(Novo Nordisk A/S, priority 1999, dated 2005)"}
{"molecular_target": "T1, human glucagon receptor (Homo sapiens, UniProt P47871)", "T1 construct": "expressed in transfected cells; host or cells: BHK (baby hamster kidney) cells", "T1 sequence (P47871 26-477)": "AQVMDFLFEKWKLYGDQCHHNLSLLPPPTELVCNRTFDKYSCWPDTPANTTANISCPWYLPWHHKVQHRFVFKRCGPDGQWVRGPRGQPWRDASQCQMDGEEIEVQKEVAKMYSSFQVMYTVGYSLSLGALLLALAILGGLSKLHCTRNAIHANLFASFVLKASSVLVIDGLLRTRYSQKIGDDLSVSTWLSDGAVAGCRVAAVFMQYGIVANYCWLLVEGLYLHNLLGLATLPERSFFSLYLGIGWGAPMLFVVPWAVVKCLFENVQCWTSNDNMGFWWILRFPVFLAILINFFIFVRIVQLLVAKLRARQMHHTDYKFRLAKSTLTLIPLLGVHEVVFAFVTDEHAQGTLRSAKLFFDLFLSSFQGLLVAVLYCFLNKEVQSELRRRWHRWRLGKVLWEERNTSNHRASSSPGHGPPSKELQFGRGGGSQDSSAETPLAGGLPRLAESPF", "test": "Glucagon Binding Assay (III)", "settings": "BHK cell membranes, WGA SPA beads, 125I-glucagon; read-out: Glu Bd Assay (III) IC50", "procedure,_shortened": "(§1)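 Non-specific binding was set with 500 nM glucagon in this SPA-type binding assay using WGA beads. The receptor source was a membrane preparation, kept on ice or at 4 °C, from BHK cells transfected with the human receptor. Scintillation counts were taken after 4 hours of shaking and 8–48 hours of settling.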", "units": {"IC50": "nM"}}
{"smiles": "Cc1cc(NC(=O)N(Cc2ccc(C(=O)Nc3nn[nH]n3)cc2)C2CCC(C(C)(C)C)CC2)cc(C(F)(F)F)c1", "note": "(centres unmarked) [Example 363, 4-[1-(4-tert-Butylcyclohexyl)-3-(3-methyl-5-trifluoromethylphenyl)ureidomethyl]-N-(2H-tetrazol-5-yl)benzamide]", "IC50": 23}
{"smiles": "CCNC(=O)c1cccc(NC(=O)N(Cc2ccc(C(=O)Nc3nn[nH]n3)cc2)c2ccc(C(C)(C)C)cc2)c1", "note": "[Example 460, N-Ethyl-3-{3-(4-tert-butylphenyl)-3-[4-(2H-tetrazol-5-ylcarbamoyl)benzyl]ureido}benzamide]", "IC50": 1730}
{"smiles": "O=C(O)CCNC(=O)c1ccc(CN(C(=O)Oc2ccc(Br)cc2Br)c2ccc(C3CCCCC3)cc2)cc1", "note": "[Example 420, 3-(4-{[(4-Cyclohexylphenyl)-(2,4-dibromompheoxycarbonyl)amino]methyl}benzoylamino)propionic acid]", "IC50": 729}
{"smiles": "CC(C)(C)C1CCC(N(Cc2ccc(C(=O)NCCC(=O)O)cc2)C(=O)Nc2ccc(Oc3ccccc3)cc2)CC1", "note": "(centres unmarked) [Example 57, 3-{4-[1-(4-tert-Butylcyclohexyl)-3-(4-phenoxyphenyl)ureidomethyl]benzoylamino}propionic acid]", "IC50": 90}
{"smiles": "O=C(O)CCNC(=O)c1ccc(CN(C(=O)Nc2ccc(OC(F)(F)F)cc2)C2CCC(C3CC3)CC2)cc1", "note": "(centres unmarked) [Example 249, 3-{4-[1-(4-Cyclopropylcyclohexyl)-3-(4-trifluoromethoxyphenyl)ureidomethyl]benzoylamino}propionic acid]", "IC50": 320}
{"smiles": "CCC(C)c1ccc(N(Cc2ccc(C(=O)Nc3nn[nH]n3)cc2)C(=O)Nc2cc(C(=O)OC)cc(C(=O)OC)c2)cc1", "note": "(centres unmarked) [Example 290]", "IC50": 101}
{"smiles": "O=C(O)CCNC(=O)c1ccc(CN(C(=O)Nc2ccc(OC(F)(F)F)cc2)C2CCC(Oc3ccccc3)CC2)cc1", "note": "(centres unmarked) [Example 244, 3-{4-[1-(4-Phenoxycyclohexyl)-3-(4-trifluoromethoxyphenyl)ureidomethyl]benzoylamino}propionic acid]", "IC50": 528}
{"smiles": "CC(Oc1ccc(OC(F)(F)F)cc1)C(=O)N(Cc1ccc(C(=O)Nc2nn[nH]n2)cc1)c1ccc(N2CCCCC2)cc1", "note": "(centres unmarked) [Example 554, 4-({(4-Piperidin-1-ylphenyl)-[2-(4-trifluoromethoxyphenoxy)propionyl]amino}methyl)-N-(2H-tetrazol-5-yl)benzamide]", "IC50": 788}
{"smiles": "O=C(Nc1nn[nH]n1)c1ccc(CN(C(=O)Nc2nc3cc4c(cc3s2)OC(F)(F)C(F)(F)O4)c2ccc(C3CCCCC3)cc2)cc1", "note": "[Example 617]", "IC50": 104}
{"smiles": "O=C(O)CCNC(=O)c1ccc(CN(C(=O)Nc2ccc(OC(F)(F)F)cc2)C2CCC3(CC2)OCCO3)cc1", "note": "[Example 89, 3-{4-[1-(1,4-Dioxaspiro[4.5]dec-8-yl)-3-(4-trifluoromethoxyphenyl)ureidomethyl]benzoylamino}propionic acid]", "IC50": 1210}
{"smiles": "CCN(c1ccccc1)S(=O)(=O)c1cc(NC(=O)N(Cc2ccc(C(=O)NCCC(=O)O)cc2)[C@H]2CC[C@H](C3CCCCC3)CC2)ccc1C", "note": "[Example 390, 3-(4-{1-(trans-4-Cyclohexylcyclohexyl)-3-[3-(N-ethyl-N-phenylsulfamoyl)-4-methylphenyl]ureidomethyl}benzoylamino)propionic acid]", "IC50": 6}
{"smiles": "CCC[C@H]1CC[C@@H](N(Cc2ccc(C(=O)NCCC(=O)O)cc2)C(=O)Nc2ccc(OC(F)(F)F)cc2)CC1", "note": "[Example 77, 3-{4-[1-(4-cis-Propylcyclohexyl)-3-(4-trifluoromethoxyphenyl)ureidomethyl]benzoylamino}propionic acid]", "IC50": 294}
{"smiles": "CC(C)(C)C1CCC(N(Cc2ccc(C(=O)Nc3nn[nH]n3)cc2)C(=O)c2cc3ccccc3s2)CC1", "note": "(centres unmarked) [Example 473, Benzo[b]thiophene-2-carboxylic acid (4-tert-butylcyclohexyl)-[4-(2H-tetrazol-5-ylcarbamoyl)benzyl]amide]", "IC50": 1500}
{"smiles": "O=C(Nc1nn[nH]n1)c1ccc(CN(C(=O)c2cc(-c3ccc(Cl)cc3)cs2)c2ccc(C3CCCCC3)cc2)cc1", "note": "[Example 565, 4-(4-Chlorophenyl)thiophene-2-carboxylic acid (4-cyclohexylphenyl)-[4-(2H-tetrazol-5-ylcarbamoyl)benzyl]amide]", "IC50": 948}
{"smiles": "CCCCN1C(=O)c2ccc(NC(=O)N(Cc3ccc(C(=O)NCCC(=O)O)cc3)c3ccc(C(C)(C)C)cc3)cc2C1=O", "note": "[Example 626, 3-{4-[3-(N′-Butylphthalimid-4-yl)-1-(4-tert-butylphenyl)ureidomethyl]benzoylamino}propionic acid]", "IC50": 38}
{"smiles": "CC(C)(C)C1CCC(N(Cc2ccc(C(=O)NCCC(=O)O)cc2)C(=O)c2ccc(Cc3ccccc3)cc2)CC1", "note": "(centres unmarked) [Example 525, 3-(4-{[(4-Benzylbenzoyl)-(4-tert-butylcyclohexyl)amino]methyl}benzoylamino)propionic acid]", "IC50": 669}
{"smiles": "CC(C)c1ccc(NC(=O)N(Cc2ccc(C(=O)NCCC(=O)O)cc2)CC(C)c2ccccc2)cc1", "note": "(centres unmarked) [Example 50, 3-{4-[3-(4-Isopropylphenyl)-1-(2-phenylpropyl)ureidomethyl]benzoylamino}propionic acid]", "IC50": 564}
{"smiles": "CCC(C)(C)C1CCC(N(Cc2ccc(C(=O)NCCC(=O)O)cc2)C(=O)Nc2ccc(OC(F)(F)F)cc2)CC1", "note": "(centres unmarked) [Example 87, 3-{4-[1-[4-(1,1-Dimethylpropyl)cyclohexyl]-3-(4-trifluoromethoxyphenyl)ureidomethyl]benzoylamino}propionic acid]", "IC50": 43}
{"smiles": "CC(C)(C)[C@H]1CC[C@H](N(Cc2ccc(C(=O)NCCC(=O)O)cc2)C(=O)Nc2cc(C(F)(F)F)cc(C(F)(F)F)c2)CC1", "note": "[Example 100, 3-{4-[3-(3,5-Bis-trifluoromethylphenyl)-1-(trans-4-tert-butylcyclohexyl)ureidomethyl]benzoylamino}propionic acid]", "IC50": 50}
{"smiles": "CC(C)(C)c1ccc(N(Cc2ccc(C(=O)Nc3nn[nH]n3)cc2)C(=O)Nc2nc3ccc(OC(F)(F)F)cc3s2)cc1", "note": "[Example 615, 4-[1-(4-tert-Butylphenyl)-3-(6-trifluoromethoxy-benzothiazol-2-yl)ureidomethyl]-N-(2H-tetra-5-yl)benzamide]", "IC50": 105}
{"smiles": "CC(C)(C)C1CCC(N(Cc2ccc(C(=O)NCCC(=O)O)cc2)C(=O)c2cccc(C(F)(F)F)c2)CC1", "note": "(centres unmarked) [Example 527, 3-(4-{[(4-tert-Butylcyclohexyl)-(3-trifluormethylbenzoyl)amino]methyl}benzoylamino)propionic acid]", "IC50": 660}
{"smiles": "C[S+]([O-])c1cccc(NC(=O)N(Cc2ccc(C(=O)Nc3nn[nH]n3)cc2)c2ccc(C3CCCCC3)cc2)c1", "note": "(centres unmarked) [Example 472, 4-[1-(4-Cyclohexylphenyl)-3-(3-methylsulfinylphenyl)ureidomethyl]-N-(2H-tetrazol-5-yl)benzamide]", "IC50": 255}
{"smiles": "O=C(O)CCNC(=O)c1ccc(CN(C(=O)c2cc(F)cc(C(F)(F)F)c2)C2CCC3(CCCCC3)CC2)cc1", "note": "[Example 618, 3-(4-{[(3-Fluoro-5-trifluoromethylbenzoyl)spiro[5.5]undec-3-yl-amino]methyl}benzoylamino)propionic acid]", "IC50": 1070}
{"smiles": "O=C(Nc1nn[nH]n1)c1ccc(CN(C(=O)Nc2ccc(SC(F)(F)F)cc2)c2ccc(C3CCCCC3)cc2)cc1", "note": "[Example 301, 4-[1-(4-Cyclohexylphenyl)-3-(4-trifluoromethylsulfanylphenyl)ureidomethyl]-N-(2H-tetrazol-5-yl)benzamide]", "IC50": 35}
{"smiles": "O=C(Nc1nn[nH]n1)c1ccc(CN(C(=O)Nc2cccc(S(=O)(=O)C(F)(F)F)c2)c2ccc(C3CCCCC3)cc2)cc1", "note": "[Example 303, 4-[1-(4-Cyclohexylphenyl)-3-(3-trifluoromethylsulfonylphenyl)ureidomethyl]-N-(2H-tetrazol-5-yl)benzamide]", "IC50": 53}
{"smiles": "CS(=O)(=O)c1cccc(NC(=O)N(Cc2ccc(C(=O)Nc3nn[nH]n3)cc2)C2CCC3(CCCCC3)CC2)c1", "note": "[Example 620, 4-[3-(3-Methylsulfonylphenyl)-1-spiro[5.5]undec-3-ylureidomethyl]-N-(2H-tetrazol-5-yl)benzamide]", "IC50": 542}
{"smiles": "CC(C)(C)C1CCC(N(Cc2ccc(C(=O)NCCC(=O)O)cc2)C(=O)Oc2ccc([N+](=O)[O-])cc2)CC1", "note": "(centres unmarked) [Example 399, 3-(4-{[(4-tert-Butylcyclohexyl)-(4-nitrophenoxycarbonyl)amino]methyl}benzoylamino)propionic acid]", "IC50": 120}
{"smiles": "O=C(Nc1nn[nH]n1)c1ccc(CN(C(=O)Nc2cc(Br)cc(C(F)(F)F)c2)c2ccc(C3=CCCCC3)cc2)cc1", "note": "[Example 269, 4-[3-(3-Bromo-5-trifluoromethylphenyl)-1-(4-cyclohex-1-enylphenyl)ureidomethyl]-N-(2H-tetrazol-5-yl)benzamide]", "IC50": 38}
{"smiles": "O=C(O)CCNC(=O)c1ccc(CN(C(=O)Nc2ccc3c(c2)C(=O)N(CC2CC2)C3=O)c2ccc(C3CCCCC3)cc2)cc1", "note": "[Example 642, 3-{4-[3-(N′-[Cyclopropylmethyl]phthalimid-4-yl)-1-(4-cyclohexylphenyl)ureidomethyl]benzoylamino}propionic acid]", "IC50": 7}
{"smiles": "CCCCC(CC)CN(Cc1ccc(C(=O)NCCC(=O)O)cc1)C(=O)Nc1ccc(Oc2ccccc2)cc1", "note": "(centres unmarked) [Example 14, 3-{4-[1-(2-Ethylhexyl)-3-(4-phenoxyphenyl)ureidomethyl]benzoylamino}propionic acid]", "IC50": 184}
{"smiles": "CC(C)(C)c1ccc(N(Cc2ccc(C(=O)NCCC(=O)O)cc2)C(=O)Oc2cc(C(F)(F)F)cc(C(F)(F)F)c2)cc1", "note": "[Example 410, 3-(4-{[(3,5-Bis(trifluoromethyl)phenoxycarbonyl)-(4-tert-butylphenyl)amino]methyl}benzoylamino)propionic acid]", "IC50": 386}
{"molecular_target": "T1, human glucagon receptor", "test": "Glucagon Binding Assay (III)", "settings": "Glu Bd Assay (III) IC50 (nM), BHK cell membranes, WGA SPA beads, 125I-glucagon", "procedure,_shortened": "as §1", "units": {"IC50": "nM"}}
{"smiles": "CC(C)(C)[C@H]1CC[C@H](N(Cc2ccc(C(=O)N3CCCC(C(=O)O)C3)cc2)C(=O)Nc2ccc(OC(F)(F)F)cc2)CC1", "note": "(relative stereo) [Example 94, 1-{4-[1-(trans-4-tert-Butylcyclohexyl)-3-(4-trifluoromethoxyphenyl)ureidomethyl]benzoyl}piperidine-3-carboxylic acid]", "IC50": 1000}
